Results from patent US11180479B2 (HAPLOGEN GmbH, priority 2017, dated 2021).

Columns and labels:
[1] = biological target: T1, PLA2G16 (Homo sapiens, UniProt P53816); assay: Enzyme activity assay for PLA2G16 (Red/Green BODIPY PC-A2 fluorescence); format: biochemical; settings: His-tagged PLA2G16, 4 min pre-incubation, compound 2 nM to 50 μM; first symbol in parentheses
T1 construct: Hexa-His (N); made in house; host or cells: E. coli BL21(DE3)
T1 sequence (P53816 1-162): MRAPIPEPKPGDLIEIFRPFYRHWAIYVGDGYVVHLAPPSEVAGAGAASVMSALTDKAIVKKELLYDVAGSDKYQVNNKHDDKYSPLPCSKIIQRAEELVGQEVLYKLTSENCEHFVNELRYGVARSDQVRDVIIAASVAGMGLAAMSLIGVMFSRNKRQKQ
Text: Purification and Enzyme Activity Assay for PLA2G16
A cDNA for PLA2G16 (NM_007069) was custom-synthesized by Genscript (Piscataway, USA) and inserted into a pET-based bacterial expression vector [Moffatt, B. A. and Studier, F. W. (1986) J. Mol. Biol. 189, 113-130; Rosenberg, A. H., Lade, B. N., Chui, D., Lin, S., Dunn, J. J., and Studier, F. W. (1987) Gene 56, 125-135], enabling the expression of N-terminally Hexa-His-tagged PLA2G16. E. coli BL21(DE3) (Agilent) were transformed with pET-His-PLA2G16 according to the manufacturer's instructions and plated on Carbenicillin-containing agar plates (final concentration: 100 μg/mL). A single clone was inoculated in 100 mL LB medium supplemented with 100 μg/mL Carbenicillin and the inoculated culture was grown at 37° C. overnight in a rotary shaker. On the next day, the bacterial culture was diluted in LB medium supplemented with 100 μg/mL Carbenicillin (30 mL overnight culture in 800 mL total culture volume). Bacteria were grown at 37° C. until the OD600 reached 0.6. Gene expression was induced by addition of 1 mM isopropyl-β-D-thiogalactopyranosid (IPTG) for 2 h at 18° C. Subsequently, bacteria were harvested by centrifugation (15 min; 10,000×g; 4° C.) and frozen at −80° C. The bacterial pellet was resuspended in Buffer A (50 mM Tris/HCl pH 7.5, 500 mM NaCl, 5% glycerol, 5 mM β-Mercaptoethanol and 1 mM PMSF) and lysed by addition of 1 mg/mL lysozyme (Sigma Aldrich) and 100 μg/mL DNasel-(Roche). The sample was incubated at 30° C. for 30 min to allow lysis to occur. Then, the lysate was cleared by centrifugation (15,000×g, 15 min, 4° C.) and incubated with 1.5 mL Ni-NTA agarose suspension (Qiagen) for 60 min at 4° C. The Ni-NTA agarose was washed with 10 mL Buffer A. Bound protein was eluted by applying a manual gradient of Buffer A supplemented with increasing concentrations of imidazole (Sigma Aldrich; 25/50/75/100/250 mM). Purified fractions were analyzed by SDS-PAGE followed by Coomassie staining to assess the purity.
Activity of the protein was assessed as follows:
Red/Green BODIPY® PC-A2 (Invitrogen, 1 mM in DMSO) was mixed with equal volumes of 1,2-Dioleoyl-sn-glycero-3-phosphocholine (DOPC; Sigma Aldrich, 10 mM in Ethanol) and 1,2-Dioleoyl-sn-glycero-3-phospho-rac-(1-glycerol) (DOPG; Sigma Aldrich, 10 mM in Ethanol) and 0.5 volumes of Cholesterol (CHOL; Sigma Aldrich, 10 mM in Ethanol) and vortexed for 5 s. The mixture (Red/Green BODIPY® PC-A2/DOPC/DOPG/CHOL) was diluted 1:91.4 in activity assay buffer (50 mM Tris/HCl pH 8.5, 100 mM NaCl) using a small-orifice pipette tip under constant vortexing. In the following, this preparation will be referred to as the “substrate solution”.
In order to evaluate their inhibitory potential, compounds were dissolved at 10 mM concentration in DMSO and directly spotted into assay plates (Corning, Cat. No. 3576) using acoustic liquid transfer (Labcyte Echo 525). Each compound was spotted at increasing concentrations, ranging from 2 nM to 50 μM (concentration in the final assay volume). 50 μl of PLA2G16 enzyme solution (diluted in activity buffer, supplemented with 5 mM L-Glutathione; Sigma Aldrich) was pre-incubated with compounds for 4 min., followed by addition of 50 μl of substrate solution. Fluorescence was recorded immediately after substrate addition for a total time of 10 min. using a SpectraMax M5 multimode reader (Excitation wavelength: 480 nm, emission wavelength: 530 nm). The relative increase of fluorescence over time is referred to as the enzyme activity. Half-maximal inhibitory concentrations (IC50) were derived by non-linear regression analysis using the drc package in R (R Development. Core Team, 2005).

[2] = system: picornaviruses (CVB1, HRV-A2, HRV-A23, EV-68); assay: Anti-picornavirus cytopathic effect (CPE) reduction assay on HeLa H1 cells; format: cell-based; settings: 48 h, category from averaging EC50 values of four picornaviruses (CVB1, HRV-A2, HRV-A23, EV68), second symbol in parentheses
Experimental: Anti-Picornavirus Assay in Mammalian Cell Culture
The antiviral activity of selected compounds was tested using a cytopathic effect (CPE) reduction assay on HeLa H1 cells (ATCC CRL-1958). Briefly, cells were seeded in 96-well dishes (2×10^4 cells/well) in DMEM medium (Life technologies) supplemented with 10% FBS and PenStrep solution (100 U/mL Penicillin and 100 μg/mL streptomycin) and incubated at 37° C., 5% CO2 overnight. The next day, cells were pre-treated with serial dilutions of the compound in DMEM medium supplemented with 2% FBS and PenStrep for 2 h at 37° C., 5% CO2. Next, cells were infected with virus (CVB1, HRV-A2, HRV-A23, EV-68) at an multiplicity of infection (MOI) which results in a complete virus-induced CPE within 2 days in control wells (infected and vehicle-treated). After 48 h, supernatants were aspirated and 50 μl/well of CellTiterBlue reagent (Promega) diluted 1:5 in DMEM+2% FBS, was added to the cells. Plates were returned to the incubator and allowed to develop for 1.5 h. After that, plates were equilibrated to RT and subsequently, fluorescence was recorded (Excitation wavelength: 560 nm; emission wavelength: 590 nm) using a SpectraMax M5 multimode plate reader. Viability of cells was calculated according to the formula: V=(RFUCpd−RFUVeh/(RFUM−RFUVeh), where RFUCpd refers to infected and compound-treated cells, RFUVeh to infected and vehicle-treated cells and RFUM to uninfected and vehicle treated cells. Half-maximal effective concentrations (EC50) were calculated by non-linear regression analysis using the drc package in R (R Development. Core Team, 2005). EC50 categories as presented in Table 2 were calculated by averaging the EC50 values from four picornaviruses (CVB1, HRV-A2, HRV-A23, EV68).

| SMILES | IC50 [1] [nM] | EC50 [2] [nM] |
| --- | --- | --- |
| CC(C)ONC(=O)C(=O)[C@H]1CNC(=O)[C@@H]1Cc1ccc(F)cc1 (racemic) [FP-77, Rac-2-[(3R,4R)-4-[(4-fluorophenyl)methyl]-5-oxopyrrolidin-3-yl]-2-oxo-N-(propan-2-yloxy)acetamide] | < 1000 | 1000 to 10000 |
| CCNC(=O)C(=O)[C@H]1CN(Cc2ncccn2)C(=O)[C@@H]1Cc1ccccc1 (racemic) [FP-36, Rac-2-[(3R,4R)-4-benzyl-5-oxo-1-[(pyrimidin-2-yl)methyl]pyrrolidin-3-yl]-N-ethyl-2-oxoacetamide] | < 1000 | 1000 to 10000 |
| CC(C)NC(=O)C(=O)[C@H]1CNC(=O)[C@@H]1c1ccccc1 (racemic) [FP-78, Rac-2-oxo-2-[(3R,4S)-5-oxo-4-phenylpyrrolidin-3-yl]-N-(propan-2-yl)acetamide] | < 1000 | 1000 to 10000 |
| CC(F)(F)CNC(=O)C(=O)[C@H]1CN(c2cccc(=O)[nH]2)C(=O)[C@@H]1Cc1ccccc1 (racemic) [FP-74, Rac-2-[(3R,4R)-4-benzyl-5-oxo-1-(6-oxo-1,6-dihydropyridin-2-yl)pyrrolidin-3-yl]-N-(2,2-difluoropropyl)-2-oxoacetamide] | < 1000 | < 1000 |
| O=C(NC1CC1)C(=O)[C@H]1CN(CC(F)F)C(=O)[C@@H]1Cc1ccccc1 (racemic) [FP-49, Rac-2-[(3R,4R)-4-benzyl-1-(2,2-difluoroethyl)-5-oxopyrrolidin-3-yl]-N-cyclopropyl-2-oxoacetamide] | < 1000 | < 1000 |
| Cc1ncncc1N1C[C@H](C(=O)C(=O)NCC(C)(F)F)[C@@H](Cc2ccccc2)C1=O (racemic) [FP-68, Rac-2-[(3R,4R)-4-benzyl-1-(4-methylpyrimidin-5-yl)-5-oxopyrrolidin-3-yl]-N-(2,2-difluoropropyl)-2-oxoacetamide] | < 1000 | 1000 to 10000 |
| O=C(NC1CC1)C(=O)[C@H]1CN(CC2CCOCC2)C(=O)[C@@H]1Cc1ccccc1 (racemic) [FP-32, Rac-2-[(3R,4R)-4-benzyl-1-[(oxan-4-yl)methyl]-5-oxopyrrolidin-3-yl]-N-cyclopropyl-2-oxoacetamide] | < 1000 | < 1000 |
| CC(F)(F)CNC(=O)C(=O)[C@@H]1CNC(=O)[C@H]1c1ccccc1 (single isomer, unassigned) [FP-87] | 1000 to 10000 | > 10000 |
| O=C(NCC1CC1)C(=O)[C@H]1CNC(=O)[C@@H]1c1ccccc1 (racemic) [FP-10, Rac-N-(cyclopropylmethyl)-2-oxo-2-[(3R,4S)-5-oxo-4-phenylpyrrolidin-3-yl]acetamide] | < 1000 | < 1000 |
| CC(F)(F)CNC(=O)C(=O)[C@H]1CNC(=O)[C@@H]1c1ccc(F)cc1 (racemic) [FP-26, Rac-N-(2,2-difluoropropyl)-2-[(3R,4S)-4-(4-fluorophenyl)-5-oxopyrrolidin-3-yl]-2-oxoacetamide] | < 1000 | 1000 to 10000 |
| Cn1ncnc1CN1C[C@H](C(=O)C(=O)NCC(C)(F)F)[C@@H](Cc2ccc(F)cc2)C1=O (racemic) [FP-53, Rac-N-(2,2-difluoropropyl)-2-[(3R,4R)-4-[(4-fluorophenyl)methyl]-1-[(1-methyl-1H-1,2,4-triazol-5-yl)methyl]-5-oxopyrrolidin-3-yl]-2-oxoacetamide] | < 1000 | 1000 to 10000 |
| CC(C)CNC(=O)C(=O)[C@H]1CN(CC(=O)N(C)C)C(=O)[C@@H]1Cc1ccccc1 (single isomer, unassigned) [FP-92] | < 1000 | 1000 to 10000 |
| CC(F)(F)CNC(=O)C(=O)[C@H]1CNC(=O)[C@@H]1C1CCCCC1 (racemic) [FP-12, Rac-2-[(3R,4R)-4-cyclohexyl-5-oxopyrrolidin-3-yl]-N-(2,2-difluoropropyl)-2-oxoacetamide] | < 1000 | < 1000 |
| CC(F)(F)CNC(=O)C(=O)[C@H]1CN(c2cncnc2)C(=O)[C@@H]1Cc1ccccc1 (racemic) [FP-56, Rac-2-[(3R,4R)-4-benzyl-5-oxo-1-(pyrimidin-5-yl)pyrrolidin-3-yl]-N-(2,2-difluoropropyl)-2-oxoacetamide] | < 1000 | < 1000 |
| O=C(NOC1CCCCC1)C(=O)[C@H]1CNC(=O)[C@@H]1Cc1ccccc1 (racemic) [FP-9, Rac-2-[(3R,4R)-4-benzyl-5-oxopyrrolidin-3-yl]-N-(cyclohexyloxy)-2-oxoacetamide] | < 1000 | 1000 to 10000 |
| Cn1cc(N2C[C@H](C(=O)C(=O)NCC(C)(F)F)[C@@H](Cc3ccccc3)C2=O)cn1 (racemic) [FP-76, Rac-2-[(3R,4R)-4-benzyl-1-(1-methyl-1H-pyrazol-4-yl)-5-oxopyrrolidin-3-yl]-N-(2,2-difluoropropyl)-2-oxoacetamide] | < 1000 | < 1000 |
| O=C(NCC(F)(F)C(F)(F)F)C(=O)[C@H]1CNC(=O)[C@@H]1c1ccccc1 (racemic) [FP-25, Rac-2-oxo-2-[(3R,4S)-5-oxo-4-phenylpyrrolidin-3-yl]-N-(2,2,3,3,3-pentafluoro-propyl)acetamide] | < 1000 | 1000 to 10000 |
| O=C(NCC(F)F)C(=O)[C@H]1CNC(=O)[C@@H]1Cc1ccccc1 (single isomer, unassigned) [FP-83] | < 1000 | < 1000 |
| O=C(NC1CC1)C(=O)[C@H]1CN(c2cnccn2)C(=O)[C@@H]1Cc1ccccc1 (racemic) [FP-57, Rac-2-[(3R,4R)-4-benzyl-5-oxo-1-(pyrazin-2-yl)pyrrolidin-3-yl]-N-cyclopropyl-2-oxoacetamide] | < 1000 | < 1000 |
| O=C(NC1CC1)C(=O)[C@H]1CN(c2cnccn2)C(=O)[C@@H]1Cc1ccccc1 (single isomer, unassigned) [FP-93] | < 1000 | < 1000 |
